# Data published in patent US12385042B2, “Cell-penetrating peptides” (VECTIOPEP OÜ, priority 2019, dated 2025).
# Where a SMILES comes first, the peptide text is derived from it. Bridges are numbered along the chain shown (N, C = ends). Roman numbers before positions name the chains, in order. [ ]: non-standard residue; d: D form. The star is where a group is joined. Stearoyl = CCCCCCCCCCCCCCCCCC(=O)*; Orn = NCCC[C@H](N)C(=O)O
# What was measured:
# [1] = system: U87 MG-luc2 human glioma cells, stably expressing luc2; experiment: Luciferase gene downregulation by CPP/siRNA (siLuc2) complexes; format: cell-based
# In short: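 U87-luc2 cells in serum-containing medium got peptide/siLuc2 complexes formed in water (pH 5.3-6.3, MR 40:1, 1 h RT) at 25 nM siRNA for 4 h at 37 °C, then 20 h more. Lysate luminescence normalized to protein; in other runs, MR30/10 nM in HEPES-FBS, or varied MR at 50 nM, vs untreated (100%).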
# U87 cells = experiment: MTS toxicity assay; format: cell-based, human
# Protocol: Cell proliferation was determined with the CellTiter 96® Aqueous Non-Radioactive Cell Proliferation Assay (MTS) (Promega Biotech AB, Sweden) according to the manufacturer's instructions. For this 1×10^5 U87 cells were seeded 1 day prior to experiment on transparent 96-well plates. On experiment day, media was replaced with 90 ul of fresh media and to the cells complexes formed at MR30 (both with 25 nM and 100 nM final siRNA concentrations) or free peptide at the range of 0.5-4 uM final concentrations were added. Cells were treated with complexes for 20 h. MTS was added according to the manufacturer's protocol. The absorbance of formazan product was measured at 490 nm with Tecan Sunrise microplate absorbance reader (Tecan Group Ltd, Switzerland) and percentage of viable cells was calculated using GraphPad Prism software 5.0 (Graphpad Software, CA, USA).
# [2] = Fluorescent dye (PicoGreen) intercalation and heparin displacement assay of CPP/siRNA complexes; format: physicochemical
# Protocol: Complexation of siRNA and CPPs was assessed by Quant-iT™ PicoGreen® (PG) (Thermo Fisher Scientific, USA) assay in mQ water. Complexes were prepared as described previously, following addition of diluted PG. For detection, complexes (⅕ of volume), water (3/5) and PG (1/5) working dilution was incubated for 5 minutes and fluorescence was measured by fluorimeter (λex=492 nm, λem=535 nm) (SynergyMx, BioTek). For heparin displacement, instead of water, heparin salt solution at different concentrations were used and complexes incubated at 37° C. for 30 min before addition of PG dilution. Complex formation was also confirmed by gel electrophoresis (details in section 2.11).
# [3] = system: CHO stably expressing green fluorescent protein (GFP); experiment: GFP gene downregulation by CPP/siGFP complexes (lysate fluorescence, FACS, confocal); format: cell-based
# Protocol: For assessing the siRNA mediated RNAi, CHO-GFP or U87-luc2 cells (5×10^5 cells per well) were seeded on a 24-well plate a day prior to the experiment and grown in serum containing media. On experiment day, prior to adding pre-formed complexes ( 1/10th of the final volume per well), media was replaced with fresh serum containing medium.
# For complex formation, peptide was mixed with luc2 siRNA (sense 5′-[…]-3′ (SEQ ID NO:7), antisense 5′-[…] 3′ (SEQ ID NO:8), Metabion, Germany) or with siRNA against GFP (5′-[…] (SEQ ID NO:9), 3′-[…] (SEQ ID NO:10)) in mQ water (pH 5.3-6.3) using peptide to siRNA molar ratios (MR is the ratio of peptide to siRNA) […] and incubated at RT for 1 h. For siLuc2, the final concentration in media was 25 nM and for siGFP 100 nM. Cells were co-incubated with complexes for 4 h (37° C., 5% CO2), thereafter fresh serum containing media was added and followed by further incubation (20 h for siLuc2 or 44 h for siGFP complexes). Luciferase gene downregulation was measured from cell lysates with Promega luciferase assay system (Promega, Sweden) in combination with GLOMAX 96 microplate luminometer equipped with GLOMAX 1.9.2 software (Promega). GFP was measured after treatment from cell lysates on black 96-well plates by measuring total fluorescence (Symergy MX, BioTek Instruments, USA equipped with Gen5 1.10 software). The results were normalized to the protein content of each sample (DC Protein Assay, BioRad, USA).
# For flow cytometry analysis (FACS) analysis CHO-GFP cells were seeded and treated as described previously. After incubation, cells were washed with 1× PBS and detached from plates with trypsin-EDTA (0.25%), and re-suspended in PBS supplemented with FBS (5%) and transferred to transparent U-bottom 96-well plates. FACS was carried out with BD LSR II flow cytometer (BD Biosciences, San Jose, CA, USA) equipped with a 488 nm argon laser. Population of viable cells was determined from scatter plot: forward scattered plot (FSC) vs. side scattered light (SSC) plot. A minimum of 10,000 events from the viable cell population per sample were analyzed using BD FACS Diva software. Results are shown as the population with GFP signal lower than that of 0.1% of untreated cells.
# For confocal microscopy 2×10^5 cells per chamber were seeded on NUNC 8-chamber plates. After treatment with complexes (25 ul of pre-formed CPP/siRNA complexes added to cells in 225 ul serum containing media), incubated (48 h) and GFP florescence images of cells were captured using confocal microscope Zeiss LSM 710 and excitation at 488 nm (493-616 filter).
structure (smiles),measurement,setting,value
CCCCCCCCCCCCCCCCCC(=O)N[C@@H](Cc1c[nH]cn1)C(=O)N[C@@H](Cc1c[nH]cn1)C(=O)N[C@@H](Cc1c[nH]cn1)C(=O)N[C@@H](Cc1c[nH]cn1)C(=O)N[C@@H](Cc1c[nH]cn1)C(=O)N[C@@H](Cc1c[nH]cn1)C(=O)NCC(=O)NCCC[C@H](N)C(=O)N[C@H](C(=O)N[C@@H](CC(C)C)C(=O)N[C@@H](CC(C)C)C(=O)N[C@@H](CCCCN)C(=O)N[C@@H](C)C(=O)N[C@@H](CC(C)C)C(=O)N[C@@H](CCCCN)C(=O)N[C@@H](C)C(=O)N[C@@H](CC(C)C)C(=O)N[C@@H](C)C(=O)N[C@@H](CCCCN)C(=O)N[C@@H](C)C(=O)N[C@H](C(=O)N[C@@H](CC(C)C)C(N)=O)[C@@H](C)CC)[C@@H](C)CC [NF704] (I: H-[Orn]ILLKALKALAKAIL-NH2 / II: Stearoyl-HHHHHHG; amide I:1-II:C),"Red (%) (reduction, based on remaining luminescence on U87 cells post-treatment)","[1]; CPP/siRNA complexes, siRNA against luciferase",82%
same,remaining reporter activity,"[1]; molar ratio 30 (MR30, peptide to siRNA), untreated cells 100%",19%
same,concentration at which free peptide is toxic to cells (MTS),U87 cells,10 µM
same,accessibility of siRNA in complexes (dye intercalation),"[2]; MR30, no heparin",low accessibility of siRNA
same,stability of complexes to heparin displacement (in words),[2]; complexes pre-formed at MR30,not as resistant to heparin displacement as H6^1-C20
same,"cells with downregulated reporter gene (GFP signal below threshold), FACS","[3]; CHO-GFP, CPP/siGFP complexes",40%
same,"downregulation of GFP (average, cell lysate fluorescence)",[3]; siGFP 100 nM,lower efficiency than H6-C20
